Laboratory results published in ChEMBL document CHEMBL1127340, “A new approach to the design of sigma-2-selective ligands: synthesis and evaluation of N-[2-(3,4-dichlorophenyl)ethyl]-N-methyl-2-(1- pyrrolidinyl)ethylamine-related polyamines at sigma-1 and sigma-2 receptor subtypes” (J Med Chem, 1994).

target: Sigma 2 receptor; experiment: Binding affinity towards sigma 2 receptor was determined in rat liver membrane using [3H]DTG as radioligand in presence of dextrallorphan; format: cell membranes

Structure (SMILES) | Ki [µM]
Clc1ccc(CCNCCNCCN2CCCC2)cc1Cl | 0.111
CN(CCCCN1CCCC1)CCCN(C)CCc1ccc(Cl)c(Cl)c1 | 0.152
NCCNCCNCCc1ccc(Cl)c(Cl)c1 | 0.537
CN(CCCN(C)Cc1ccc(Cl)c(Cl)c1)CCN1CCCC1 | 0.0526
CN(CCc1ccc(Cl)c(Cl)c1)CCN(C)CCN(C)CCN(C)CCN1CCCC1 | 0.162
CN(CCCCN(C)CCc1ccc(Cl)c(Cl)c1)CCCCN1CCCC1 | 0.115
CN(CCN(C)Cc1ccc(Cl)c(Cl)c1)CCN1CCCC1 | 0.0121
CN(CCc1ccc(Cl)c(Cl)c1)CCN(C)CCN(C)CCN1CCCC1 | 0.0536
CN(CCCN1CCCC1)CCN(C)Cc1ccc(Cl)c(Cl)c1 | 0.183
CN(CCc1ccc(Cl)c(Cl)c1)CCN1CCCC1 | 0.0081
NCCN(CCc1ccc(Cl)c(Cl)c1)CCN1CCCC1 | 0.135
CN(CCCN(C)CCc1ccc(Cl)c(Cl)c1)CCCN1CCCC1 | 0.0149
CN(CCc1ccc(Cl)c(Cl)c1)CCN(C)CCN1CCCC1 | 0.0144
NCCNCCc1ccc(Cl)c(Cl)c1 | 2.36
Clc1ccc(CCN2CCCC2)cc1Cl | 7.71
